According to patent US20240197759A1, “IMMUNE STIMULATING NANOPARTICLE COMPOSITION” (DANMARKS TEKNISKE UNIVERSITET, priority 2021, published 2024):

System: CT26 syngenic subcutaneous colon cancer model
Assay: Antitumor activity of MBS8 micelles in combination with doxorubicin or doxil in the CT26 model
Format: in vivo, mice
Conditions: mono chemotherapy 4 mg/kg i.v. q4d x3
Procedure: Randomisation of mice and treatment started when tumors reached an average volume of 100 mm^3 (Day 0). […] All drugs were administered by intravenous bolus. Doxorubicin or doxil were given q4d, total of 3 injections. […] Growth of tumors was measured twice a week.

**Q.** With `COc1cccc2c1C(=O)c1c(O)c3c(c(O)c1C2=O)C[C@@](O)(C(=O)CO)C[C@@H]3O[C@H]1C[C@H](N)[C@H](O)[C@H](C)O1` [doxorubicin] as the compound, how does the complete responders read?
**A.** no complete responders
